# Reference: patent US20220153751A1, “BIFUNCTIONAL COMPOUNDS” (BioTheryX, Inc., priority 2018, published 2022)
# Experiments:
# Format in all cases: cell-based
# IL-1β = IL-1β inhibition assay, LPS-induced PBMCs / CD14+ monocytes (Meso Scale); conditions: 1 h pretreatment, 100 ng/mL LPS 18-24 h
# Procedure, shortened: (§1)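 Thawed human PBMCs or CD14+ mobilized peripheral blood monocytes, 200,000 cells/well in RPMI-1640/10% FBS, pretreated with compound or DMSO 1 h, then stimulated with 100 ng/mL LPS for 18-24 h. Supernatant cytokine measured by Meso Scale; % inhibition binned A–D (<50%, 50–70%, 70–90%, ≥90%), fold-change binned A–D (≤0.1, ≤0.5, ≤1, >1).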
# CK1α = target: T1, CK1α (Homo sapiens, UniProt P48729+Q96SW2); test: CK1α degradation assay (Western blot, MV-4-11 cells); conditions: MV4-11, 6-8 h
# T1 construct: Whole cell extracts were prepared using RIPA buffer; endogenous in cells; host or cells: MV-4-11
# Procedure, shortened: (§2)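 Immunoblot-based % degradation, scored A–D in 25% steps (D ≥75%). Compound exposure was 6-8 h.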
# IL-6 = IL-6 inhibition assay, LPS-induced PBMCs / CD14+ monocytes (Meso Scale); conditions: 1 h pretreatment, 100 ng/mL LPS 18-24 h
# Procedure, shortened: as §1
# MOLM-13 cells = test: MOLM-13 cell viability assay (CellTiter-Glo); conditions: Homo sapiens, MOLM-13, 72 h, 3 days, read-out: MOLM-13 Cell Viability % DMSO at 1 μM
# Procedure, shortened: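 MOLM-13 cells at 2500 cells/well were exposed to compound for 3 days at 37 °C. Viability was read by CellTiter-Glo luminescence and expressed as % of DMSO control, binned A (<50%), B (50–<70%), C (70–<90%) or D (≥90%).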
# IL-2 = IL-2 fold-change assay, anti-CD3 stimulated PBMCs (Mesoscale); conditions: PBMC, PBMCs on anti-human CD3, 24 h, fold difference from the DMSO control
# Procedure, shortened: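 PBMCs (3-4 million cells/mL) stimulated on plates precoated with 1 μg/mL anti-human CD3 antibody, with compound, for 24 h. Supernatant IL-2 measured by Mesoscale. Result expressed as fold difference from DMSO control and reported in bins.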
# GSPT1 = target: T2, GSPT1 (Homo sapiens, UniProt P15170+Q96SW2); test: GSPT1 degradation assay (Western blot, MV-4-11 cells); conditions: MV4-11, 6-8 h
# T2 construct: Whole cell extracts were prepared using RIPA buffer; endogenous in cells; host or cells: MV-4-11
# Procedure, shortened: as §2
# IKAROS = target: T3, IKAROS (Homo sapiens, UniProt Q13422+Q96SW2); test: IKAROS degradation assay (Western blot, MV-4-11 cells); conditions: MV4-11, 6-8 h
# T3 construct: endogenous in cells; host or cells: MV-4-11
# Procedure, shortened: as §2
# TNF-α = TNF-α inhibition assay, LPS-induced PBMCs / CD14+ monocytes (Meso Scale); conditions: 1 h pretreatment, 100 ng/mL LPS 18-24 h
# Procedure, shortened: as §1
# CDK16 = target: T4, CDK16 (Homo sapiens, UniProt Q00536); test: CDK16 degradation assay (Western blot, MV-4-11 cells); conditions: 6-8 h; for Dmax at 0.1 µM: MV4-11, 0.1 μM; for Dmax at 1 µM: MV4-11, 1 μM
# T4 construct: Whole cell extracts were prepared using RIPA buffer; endogenous in cells; host or cells: MV-4-11
# Procedure, shortened: as §2
# CDK9 = target: T5, CDK9 (Homo sapiens, UniProt P50750); test: CDK9 degradation assay (Western blot, MV-4-11 cells); conditions: 6-8 h; for Dmax at 0.1 µM: MV4-11, 0.1 μM; for Dmax at 1 µM: MV4-11, 1 μM
# T5 construct: Whole cell extracts were prepared using RIPA buffer; endogenous in cells; host or cells: MV-4-11
# Procedure, shortened: as §2
# T2 sequence (P15170 whole entry): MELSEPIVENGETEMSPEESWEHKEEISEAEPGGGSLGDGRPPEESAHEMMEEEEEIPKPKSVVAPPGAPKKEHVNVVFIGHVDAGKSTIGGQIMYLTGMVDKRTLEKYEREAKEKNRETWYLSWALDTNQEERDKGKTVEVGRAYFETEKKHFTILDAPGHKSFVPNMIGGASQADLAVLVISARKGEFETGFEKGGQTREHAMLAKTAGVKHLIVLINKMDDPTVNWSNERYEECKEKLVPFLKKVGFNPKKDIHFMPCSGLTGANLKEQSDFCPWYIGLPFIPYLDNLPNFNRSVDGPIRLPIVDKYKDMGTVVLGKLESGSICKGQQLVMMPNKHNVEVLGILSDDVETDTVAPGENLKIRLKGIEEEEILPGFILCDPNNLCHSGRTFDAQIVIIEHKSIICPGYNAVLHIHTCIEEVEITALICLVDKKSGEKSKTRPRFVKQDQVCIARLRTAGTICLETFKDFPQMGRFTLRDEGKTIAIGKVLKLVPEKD
# T2 sequence (Q96SW2 whole entry): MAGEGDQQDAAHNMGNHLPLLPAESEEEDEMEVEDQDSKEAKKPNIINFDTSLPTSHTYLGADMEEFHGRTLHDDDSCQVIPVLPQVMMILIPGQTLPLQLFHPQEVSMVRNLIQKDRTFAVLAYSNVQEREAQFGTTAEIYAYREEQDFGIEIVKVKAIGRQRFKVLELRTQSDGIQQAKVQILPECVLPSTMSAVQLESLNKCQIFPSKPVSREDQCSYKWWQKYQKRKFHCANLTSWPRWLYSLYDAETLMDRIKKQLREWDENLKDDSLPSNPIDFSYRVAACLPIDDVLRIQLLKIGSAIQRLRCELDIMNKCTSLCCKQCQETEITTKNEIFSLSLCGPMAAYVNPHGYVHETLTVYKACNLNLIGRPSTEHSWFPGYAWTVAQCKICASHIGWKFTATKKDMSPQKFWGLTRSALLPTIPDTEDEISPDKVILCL
# T2 sequence (Q16531 whole entry partner): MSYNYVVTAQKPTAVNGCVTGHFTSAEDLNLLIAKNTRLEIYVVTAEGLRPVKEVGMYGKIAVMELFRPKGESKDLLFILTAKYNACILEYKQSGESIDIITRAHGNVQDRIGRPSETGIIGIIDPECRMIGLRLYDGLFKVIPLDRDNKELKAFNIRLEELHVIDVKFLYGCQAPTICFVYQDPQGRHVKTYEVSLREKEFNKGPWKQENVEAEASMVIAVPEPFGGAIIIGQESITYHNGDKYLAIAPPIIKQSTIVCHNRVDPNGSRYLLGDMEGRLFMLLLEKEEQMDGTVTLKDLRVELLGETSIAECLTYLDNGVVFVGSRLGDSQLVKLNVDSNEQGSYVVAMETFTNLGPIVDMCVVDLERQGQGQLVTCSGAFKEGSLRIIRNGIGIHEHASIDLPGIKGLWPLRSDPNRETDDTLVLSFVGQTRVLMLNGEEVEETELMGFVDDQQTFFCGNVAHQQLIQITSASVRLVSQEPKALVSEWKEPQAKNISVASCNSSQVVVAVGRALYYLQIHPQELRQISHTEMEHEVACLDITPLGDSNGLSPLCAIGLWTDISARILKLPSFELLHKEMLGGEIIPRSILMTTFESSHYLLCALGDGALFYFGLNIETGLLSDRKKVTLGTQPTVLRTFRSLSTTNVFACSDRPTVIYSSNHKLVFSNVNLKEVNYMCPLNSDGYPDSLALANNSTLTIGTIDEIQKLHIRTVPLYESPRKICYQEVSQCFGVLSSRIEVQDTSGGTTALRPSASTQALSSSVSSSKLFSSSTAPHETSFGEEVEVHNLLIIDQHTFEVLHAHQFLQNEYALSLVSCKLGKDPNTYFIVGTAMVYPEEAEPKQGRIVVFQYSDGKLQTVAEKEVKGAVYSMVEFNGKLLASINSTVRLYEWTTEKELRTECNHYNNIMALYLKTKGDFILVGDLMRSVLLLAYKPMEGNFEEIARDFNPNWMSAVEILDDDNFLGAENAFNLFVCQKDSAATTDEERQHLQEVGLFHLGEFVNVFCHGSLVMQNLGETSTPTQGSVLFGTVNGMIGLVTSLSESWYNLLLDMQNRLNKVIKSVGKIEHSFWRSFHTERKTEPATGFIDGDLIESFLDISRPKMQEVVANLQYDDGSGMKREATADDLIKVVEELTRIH
# T4 sequence (Q00536 whole entry): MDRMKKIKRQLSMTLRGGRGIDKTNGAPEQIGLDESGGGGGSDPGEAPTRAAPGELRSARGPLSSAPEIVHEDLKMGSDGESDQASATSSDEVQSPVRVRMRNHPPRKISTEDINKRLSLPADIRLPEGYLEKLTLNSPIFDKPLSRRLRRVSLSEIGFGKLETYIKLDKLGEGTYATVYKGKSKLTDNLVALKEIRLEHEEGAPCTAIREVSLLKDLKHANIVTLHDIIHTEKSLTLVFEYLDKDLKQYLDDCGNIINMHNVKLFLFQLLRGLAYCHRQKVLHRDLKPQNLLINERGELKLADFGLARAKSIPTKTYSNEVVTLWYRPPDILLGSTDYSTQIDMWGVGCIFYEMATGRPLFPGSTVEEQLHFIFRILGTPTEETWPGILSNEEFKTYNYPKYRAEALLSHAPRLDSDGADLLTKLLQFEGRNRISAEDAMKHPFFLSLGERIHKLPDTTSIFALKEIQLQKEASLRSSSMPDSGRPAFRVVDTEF
# T1 sequence (P48729 whole entry): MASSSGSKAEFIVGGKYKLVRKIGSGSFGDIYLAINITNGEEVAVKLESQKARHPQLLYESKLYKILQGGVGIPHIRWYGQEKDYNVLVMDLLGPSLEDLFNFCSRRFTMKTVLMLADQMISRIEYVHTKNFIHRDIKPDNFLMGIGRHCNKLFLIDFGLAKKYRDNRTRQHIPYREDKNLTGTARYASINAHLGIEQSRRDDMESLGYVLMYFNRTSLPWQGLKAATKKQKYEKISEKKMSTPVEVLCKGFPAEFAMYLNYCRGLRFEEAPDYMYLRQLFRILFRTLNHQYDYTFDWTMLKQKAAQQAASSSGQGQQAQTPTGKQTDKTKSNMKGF
# T1 sequence (Q96SW2 whole entry): as the sequence (Q96SW2 whole entry) above
# T1 sequence (Q16531 whole entry partner): as the sequence (Q16531 whole entry partner) above
# T5 sequence (P50750 whole entry): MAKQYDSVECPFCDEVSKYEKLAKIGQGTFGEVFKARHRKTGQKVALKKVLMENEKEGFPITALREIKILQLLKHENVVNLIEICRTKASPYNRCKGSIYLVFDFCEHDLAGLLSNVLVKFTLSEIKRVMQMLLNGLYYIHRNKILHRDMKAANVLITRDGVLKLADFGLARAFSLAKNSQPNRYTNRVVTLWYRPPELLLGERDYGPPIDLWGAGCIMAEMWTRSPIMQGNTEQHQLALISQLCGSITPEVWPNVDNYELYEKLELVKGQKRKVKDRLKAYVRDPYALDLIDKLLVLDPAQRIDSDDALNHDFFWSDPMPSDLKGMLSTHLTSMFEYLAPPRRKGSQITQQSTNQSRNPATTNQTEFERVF
# T3 sequence (Q13422 whole entry): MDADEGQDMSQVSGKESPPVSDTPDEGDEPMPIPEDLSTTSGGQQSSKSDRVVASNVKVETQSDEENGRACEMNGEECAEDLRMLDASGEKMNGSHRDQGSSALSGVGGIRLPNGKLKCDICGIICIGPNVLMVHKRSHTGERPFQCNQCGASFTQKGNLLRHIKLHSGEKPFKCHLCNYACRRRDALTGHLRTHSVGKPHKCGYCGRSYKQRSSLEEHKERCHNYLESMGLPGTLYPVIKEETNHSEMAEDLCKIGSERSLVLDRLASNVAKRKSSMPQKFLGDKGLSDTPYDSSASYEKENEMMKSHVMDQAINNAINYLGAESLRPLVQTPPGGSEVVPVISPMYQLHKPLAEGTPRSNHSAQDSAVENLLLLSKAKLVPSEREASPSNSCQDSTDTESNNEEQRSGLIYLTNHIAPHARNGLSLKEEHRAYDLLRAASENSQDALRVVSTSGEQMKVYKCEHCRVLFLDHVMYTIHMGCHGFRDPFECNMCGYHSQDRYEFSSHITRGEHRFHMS
# T3 sequence (Q96SW2 whole entry): as the sequence (Q96SW2 whole entry) above
# T3 sequence (Q16531 whole entry partner): as the sequence (Q16531 whole entry partner) above
Dmax at 1 µM (CK1α) [%],Dmax at 1 µM (GSPT1) [%],Dmax at 1 µM (IKAROS) [%],Dmax at 0.1 µM (CDK16) [%],Dmax at 1 µM (CDK16) [%],Dmax at 0.1 µM (CDK9) [%],Dmax at 1 µM (CDK9) [%],SMILES,inhibition at 1 µM (IL-1β) [%],inhibition at 1 µM (IL-6) [%],viability at 1 µM (MOLM-13 cells) [%],fold induction at 1 µM (IL-2),inhibition at 1 µM (TNF-α) [%]
50 to 75,50 to 75,25 to 50,,,,,"CC(C)(C)c1cnc(CSc2cnc(NC(=O)C3CCN(CC(=O)NCCCCCCCNC(=O)NCc4cc5c(s4)C(=O)N(C4CCC(=O)NC4=O)C5)CC3)s2)o1 (stereo not shown) [Compound 18, N-(5-(((5-(tert-butyl)oxazol-2-yl)methyl)thio)thiazol-2-yl)-1-(2-((7-(3-((5-(2,6-dioxopiperidin-3-yl)-6-oxo-5,6-dihydro-4H-thieno[2,3-c]pyrrol-2-yl)methyl)ureido)heptyl)amino)-2-oxoethyl)piperidine-4-carboxamide]",> 90,> 90,> 90,≤ 0.1,70 to 90
25 to 50,50 to 75,50 to 75,25 to 50,< 25,< 25,≥ 75,"CC(C)(C)c1cnc(CSc2cnc(NC(=O)C3CCN(CC(=O)NCCOCCOCCNCC(=O)NCc4cc5c(s4)C(=O)N(C4CCC(=O)NC4=O)C5)CC3)s2)o1 (stereo not shown) [Compound 34, N-(5-(((5-(tert-butyl)oxazol-2-yl)methyl)thio)thiazol-2-yl)-1-(1-(5-(2,6-dioxopiperidin-3-yl)-6-oxo-5,6-dihydro-4H-thieno[2,3-c]pyrrol-2-yl)-3,15-dioxo-8,11-dioxa-2,5,14-triazahexadecan-16-yl)piperidine-4-carboxamide]",70 to 90,70 to 90,> 90,≤ 0.1,70 to 90
25 to 50,50 to 75,25 to 50,,,,,"Cn1ncc(-c2nc(N[C@H]3CC[C@H](NCC(=O)NCCCCNCC(=O)NCc4cc5c(s4)C(=O)N(C4CCC(=O)NC4=O)C5=O)CC3)ncc2F)c1CC1CC1 (stereo partly shown) [Compound 37, 2-(((1r,4r)-4-((4-(5-(cyclopropylmethyl)-1-methyl-1H-pyrazol-4-yl)-5-fluoropyrimidin-2-yl)amino)cyclohexyl)amino)-N-(4-((2-(((5-(2,6-dioxopiperidin-3-yl)-4,6-dioxo-5,6-dihydro-4H-thieno[2,3-c]pyrrol-2-yl)methyl)amino)-2-oxoethyl)amino)butyl)acetamide]",> 90,> 90,50 to 70,0.1 to 0.5,70 to 90
50 to 75,≥ 75,50 to 75,< 25,< 25,50 to 75,≥ 75,"CC(C)(C)c1cnc(CSc2cnc(NC(=O)C3CCN(CC(=O)NCCOCCOCCOCCNCC(=O)NCc4scc5c4CN(C4CCC(=O)NC4=O)C5=O)CC3)s2)o1 (stereo not shown) [Compound 41, N-(5-(((5-(tert-butyl)oxazol-2-yl)methyl)thio)thiazol-2-yl)-1-(1-(5-(2,6-dioxopiperidin-3-yl)-4-oxo-5,6-dihydro-4H-thieno[3,4-c]pyrrol-1-yl)-3,18-dioxo-8,11,14-trioxa-2,5,17-triazanonadecan-19-yl)piperidine-4-carboxamide]",> 90,> 90,70 to 90,0.1 to 0.5,70 to 90
25 to 50,25 to 50,50 to 75,,,,,"Cn1ncc(-c2nc(N[C@H]3CC[C@H](NCC(=O)NCCCCNCC(=O)NCc4scc5c4C(=O)N(C4CCC(=O)NC4=O)C5=O)CC3)ncc2Cl)c1CC1CC1 (stereo partly shown) [Compound 51, 2-(((1r,4r)-4-((5-chloro-4-(5-(cyclopropylmethyl)-1-methyl-1H-pyrazol-4-yl)pyrimidin-2-yl)amino)cyclohexyl)amino)-N-(4-((2-(((5-(2,6-dioxopiperidin-3-yl)-4,6-dioxo-5,6-dihydro-4H-thieno[3,4-c]pyrrol-1-yl)methyl)amino)-2-oxoethyl)amino)butyl)acetamide]",> 90,> 90,> 90,≤ 0.1,> 90
25 to 50,50 to 75,≥ 75,,,,,"Cn1ncc(-c2nc(N[C@H]3CC[C@H](NCC(=O)NCCOCCOCCOCCNc4cccc5c4CN(C4CCC(=O)NC4=O)C5=O)CC3)ncc2Cl)c1CC1CC1 (stereo partly shown) [Compound 55, 2-(((1r,4r)-4-((5-chloro-4-(5-(cyclopropylmethyl)-1-methyl-1H-pyrazol-4-yl)pyrimidin-2-yl)amino)cyclohexyl)amino)-N-(2-(2-(2-(2-((2-(2,6-dioxopiperidin-3-yl)-1-oxoisoindolin-4-yl)amino)ethoxy)ethoxy)ethoxy)ethyl)acetamide]",> 90,> 90,> 90,≤ 0.1,> 90
25 to 50,50 to 75,25 to 50,,,,,"Cn1ncc(-c2nc(N[C@H]3CC[C@H](NCCOCCOCCNCc4ccc(OCc5scc6c5CN([C@H]5CCC(=O)NC5=O)C6=O)cc4)CC3)ncc2Cl)c1CC1CC1 [Compound 67, (S)-3-(1-((4-(((2-(2-(2-(((1r,4r)-4-((5-chloro-4-(5-(cyclopropylmethyl)-1-methyl-1H-pyrazol-4-yl)pyrimidin-2-yl)amino)cyclohexyl)amino)ethoxy)ethoxy)ethyl)amino)methyl)phenoxy)methyl)-4-oxo-4H-thieno[3,4-c]pyrrol-5(6H)-yl)piperidine-2,6-dione]",> 90,> 90,> 90,0.5 to 1,> 90
